Tests used:
Glucocorticoid receptor [1] = biological target: T1, Glucocorticoid receptor (Homo sapiens, UniProt P04150)
T1 sequence (P04150 whole entry): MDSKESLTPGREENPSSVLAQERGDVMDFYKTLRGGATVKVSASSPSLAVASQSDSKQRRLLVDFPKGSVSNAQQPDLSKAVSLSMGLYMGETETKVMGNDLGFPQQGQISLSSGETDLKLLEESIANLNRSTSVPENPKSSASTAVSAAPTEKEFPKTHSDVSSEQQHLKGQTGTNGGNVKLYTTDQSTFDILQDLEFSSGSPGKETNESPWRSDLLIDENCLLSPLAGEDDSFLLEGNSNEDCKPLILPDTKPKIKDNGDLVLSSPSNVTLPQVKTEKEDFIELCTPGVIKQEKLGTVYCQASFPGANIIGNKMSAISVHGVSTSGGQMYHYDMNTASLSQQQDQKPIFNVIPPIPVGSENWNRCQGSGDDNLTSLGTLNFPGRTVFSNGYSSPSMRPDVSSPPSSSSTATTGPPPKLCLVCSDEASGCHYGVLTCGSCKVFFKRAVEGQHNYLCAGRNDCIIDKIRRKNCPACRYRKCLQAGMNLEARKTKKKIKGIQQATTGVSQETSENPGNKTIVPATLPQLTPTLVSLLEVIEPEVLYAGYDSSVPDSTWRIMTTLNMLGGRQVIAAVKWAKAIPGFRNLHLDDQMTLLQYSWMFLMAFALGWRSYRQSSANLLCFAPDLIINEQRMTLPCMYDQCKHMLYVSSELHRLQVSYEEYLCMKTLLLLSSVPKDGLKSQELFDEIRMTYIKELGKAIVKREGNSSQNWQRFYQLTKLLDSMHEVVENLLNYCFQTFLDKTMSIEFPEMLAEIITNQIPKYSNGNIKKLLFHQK
Description: Agonist activity at glucocorticoid receptor in human PBMC assessed as inhibition of LPS-stimulated TNF-alpha release

Glucocorticoid receptor [2] = biological target: T1, Glucocorticoid receptor; remark: listed apart in the source
Description: Agonist activity at glucocorticoid receptor in human Chago K1 cells assessed as gene transrepression by Lac-Z reporter gene assay

Glucocorticoid receptor [3] = biological target: T1, Glucocorticoid receptor; remark: listed apart in the source
Description: Binding affinity to human glucocorticoid receptor by fluorescence polarization assay

Rattus norvegicus [4] = assay: Antiinflammatory activity in rat assessed as inhibition of LPS-induced leukocyte influx to broncho-alveolar lavage fluid at 30 ug/kg, administered intratracheally 2 hrs prior to LPS challenge measured after 4 hrs relative to control; assay type: functional; conditions: inhaled or nasal
Rattus norvegicus [5] = assay: Antiinflammatory activity in rat assessed as inhibition of LPS-induced leukocyte influx to broncho-alveolar lavage fluid at 10 ug/kg, administered intratracheally 2 hrs prior to LPS challenge measured after 4 hrs relative to control; assay type: functional; conditions: inhaled or nasal
Rattus norvegicus [6] = assay: Antiinflammatory activity in rat assessed as inhibition of LPS-induced leukocyte influx to broncho-alveolar lavage fluid at 100 ug/kg, administered intratracheally 2 hrs prior to LPS challenge measured after 4 hrs relative to control; assay type: functional; conditions: inhaled or nasal
Rattus norvegicus [7] = assay: Antiinflammatory activity in rat assessed as inhibition of LPS-induced lung edema at 30 ug/kg, administered intratracheally 2 hrs prior to LPS challenge measured after 4 hrs relative to control; assay type: functional; conditions: inhaled or nasal
Rattus norvegicus [8] = assay: Antiinflammatory activity in rat assessed as inhibition of LPS-induced lung edema at 100 ug/kg, administered intratracheally 2 hrs prior to LPS challenge measured after 4 hrs relative to control; assay type: functional; conditions: inhaled or nasal
Mus musculus = assay: Antiinflammatory activity in mouse acute cigarette smoke model assessed as inhibition of neutrophil influx to broncho-alveolar lavage fluid at 30 ug/kg, administered intratracheally 30 mins prior to first cigarette smoke challenge every day for 4 days measured after 24 hrs post last cigarette smoke challenge relative to control; conditions: inhaled or nasal
Rattus norvegicus [9] = assay: Antiinflammatory activity in rat assessed as inhibition of LPS-induced lung edema at 10 ug/kg, administered intratracheally 2 hrs prior to LPS challenge measured after 4 hrs relative to control; assay type: functional; conditions: inhaled or nasal
[10] = Lipophilicity, log D of the compound at pH 7.4; assay type: physicochemical; conditions: buffer

IC50 (Glucocorticoid receptor [1]) [nM]	IC50 (Glucocorticoid receptor [2]) [nM]	IC50 (Glucocorticoid receptor [3]) [nM]	Compound	also measured
28	6.1	–	Cc1cc(C)c(S(=O)(=O)N[C@@H](C)CNc2cccc3c2cnn3-c2cccc(F)c2)c(C)c1	–
12	4.5	–	Cc1ccc(-n2ncc3c(NC[C@H](C)NS(=O)(=O)c4c(C)cc(C)cc4C)cccc32)cc1	–
–	43	–	Cc1nn(C2CCCC2)c(C)c1S(=O)(=O)N[C@@H](C)CNc1cccc2c1cnn2-c1cncnc1	–
–	–	1600	Cc1ccc(S(=O)(=O)N[C@@H](C)COc2cccc3ncccc23)c(C)c1	–
–	2200	160	Cc1cc(C)c(S(=O)(=O)N[C@@H](C)CNc2cccc3nc(C)ccc23)c(C)c1	–
13	3.7	3.4	Cc1cc(C)c(S(=O)(=O)N[C@@H](C)CNc2cccc3c2cnn3-c2ccc(Cl)cc2)c(C)c1	–
–	–	–	CCC(=O)O[C@]1(C(=O)SCF)[C@H](C)C[C@H]2[C@@H]3C[C@H](F)C4=CC(=O)C=C[C@]4(C)[C@@]3(F)[C@@H](O)C[C@@]21C [FLUTICASONE PROPIONATE]	inhibition in vivo at 0.03 mg/kg (Rattus norvegicus [4]): 92%; inhibition in vivo at 0.01 mg/kg (Rattus norvegicus [5]): 84%; inhibition in vivo at 0.1 mg/kg (Rattus norvegicus [6]): 94%; inhibition in vivo at 0.03 mg/kg (Rattus norvegicus [7]): 78%; inhibition in vivo at 0.1 mg/kg (Rattus norvegicus [8]): 116%; inhibition in vivo at 0.03 mg/kg (Mus musculus): 0%; inhibition in vivo at 0.01 mg/kg (Rattus norvegicus [9]): 64%
–	–	10000	Cc1cc(C)c(S(=O)(=O)N[C@@H](C)CNc2ccc3ncccc3c2)c(C)c1	–
–	760	–	Cc1cc(C)c(S(=O)(=O)N[C@@H](C)CNc2cccc3[nH]ncc23)c(C)c1	–
13	16	–	Cc1nn(C2CCCC2)c(C)c1S(=O)(=O)N[C@@H](C)CNc1cccc2c1cnn2-c1ccc(C#N)cc1	–
1.6	1.5	–	Cc1cc(C)c(S(=O)(=O)N[C@@H](C)CNc2cccc3c2cnn3-c2ccccc2)c(C)c1	–
–	2400	80	C[C@@H](COc1cccc2ncccc12)NS(=O)(=O)c1c(Cl)cc(Cl)cc1Cl	–
–	–	> 10000	C[C@@H](COc1cccc2ncccc12)NS(=O)(=O)c1ccccc1	–
–	–	18	Cc1cc(C)c(S(=O)(=O)N[C@@H](C)COc2cccc3cnccc23)c(C)c1	logD [10]: 4.1
–	–	410	Cc1ccc(S(=O)(=O)N[C@@H](C)COc2cccc3cnccc23)c(C)c1	–
–	–	32	Cc1nn(C2CCCC2)c(C)c1S(=O)(=O)N[C@@H](C)COc1cccc2cnccc12	logD [10]: 3.5
–	–	85	Cc1cc(C)c(S(=O)(=O)N[C@@H](C)COc2c(C)cccc2C)c(C)c1	–
–	–	> 10000	COc1ccccc1S(=O)(=O)N[C@@H](C)COc1cccc2ncccc12	–
–	–	> 10000	C[C@@H](COc1cccc2ncccc12)NS(=O)(=O)c1ccccc1C#N	–

IC50 (Glucocorticoid receptor [1]) [nM]	IC50 (Glucocorticoid receptor [2]) [nM]	IC50 (Glucocorticoid receptor [3]) [nM]	Compound	also measured
–	960	240	Cc1cc(C)c(S(=O)(=O)N[C@@H](C)COc2cccc3ncccc23)c(C)c1	–
23	–	–	Cc1cc(C)c(S(=O)(=O)N[C@@H](C)CNc2cccc3c2cnn3-c2ccc(F)nc2)c(C)c1	–
–	1800	–	Cc1cc(C)c(S(=O)(=O)N[C@@H](C)CNc2cccc3ncccc23)c(C)c1	–
–	41	–	COc1cccc(-n2ncc3c(NC[C@H](C)NS(=O)(=O)c4c(C)cc(C)cc4C)cccc32)c1	–
2	2.6	–	Cc1cc(C)c(S(=O)(=O)N[C@@H](C)CNc2cccc3c2cnn3-c2cccnc2)c(C)c1	–
36	14	3.8	Cc1cc(C)c(S(=O)(=O)NC(COc2cccc3c2cnn3-c2ccc(F)cc2)C(F)(F)F)c(C)c1 (racemic)	–
–	1100	–	Cc1cc(C)c(S(=O)(=O)N[C@@H](C)CNc2ccc(C)c3ncccc23)c(C)c1	–
2.1	12	35	Cc1cc(C)c(S(=O)(=O)N[C@H](CNc2cccc3c2cnn3-c2ccc(F)cc2)C(C)C)c(C)c1	–
–	–	55	Cc1cc(C)c(S(=O)(=O)N[C@@H](C)CCc2ccccc2)c(C)c1	–
–	9.7	–	Cc1nn(C2CCCC2)c(C)c1S(=O)(=O)N[C@@H](C)CNc1cccc2c1cnn2-c1ccc(F)cc1	–
–	–	220	Cc1cc(Cl)cc(Cl)c1S(=O)(=O)N[C@@H](C)COc1cccc2ncccc12	–
–	–	1800	C[C@@H](COc1cccc2ncccc12)NS(=O)(=O)c1cccc(C#N)c1	–
12	23	–	Cc1cc(C)c(S(=O)(=O)N[C@@H](C)CCc2cccc3c2cnn3-c2ccc(F)cc2)c(C)c1	–
23	14	4.1	Cc1cc(C)c(S(=O)(=O)N[C@@H](C)CNc2cccc3c2cnn3-c2ccc(F)c(C)c2)c(C)c1	–
8.1	6.9	5.3	Cc1cc(C)c(S(=O)(=O)N[C@@H](C)CNc2cccc3c2cnn3-c2cncnc2)c(C)c1	–
–	–	7.7	Cc1cc(C)c(S(=O)(=O)NC(C)CSc2cccc3c2cnn3-c2ccc(F)cc2)c(C)c1 (racemic)	–
–	–	10000	Cc1cc(C)c(S(=O)(=O)N[C@@H](C)CNc2ccc3cnccc3c2)c(C)c1	–
8.8	6.6	–	Cc1cccc(-n2ncc3c(NC[C@H](C)NS(=O)(=O)c4c(C)cc(C)cc4C)cccc32)c1	–

— ChEMBL document CHEMBL3259563, “The discovery of potent and selective non-steroidal glucocorticoid receptor modulators, suitable for inhalation” (Bioorg Med Chem Lett, 2014)
